Measurements from PubChem BioAssay (NCI).
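Grown in 96-well plates, cells were treated for 48 hours with each compound at five concentrations. Insufficient inhibition: endpoint recorded as highest concentration tested. The concentration for full growth arrest is given as TGI.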

Key:
Assay in all cases: NCI tumour cell line growth inhibition, 48 h
BT-549 breast = tested on: BT-549 breast
SK-MEL-5 melanoma = tested on: SK-MEL-5 melanoma
HL-60(TB) leukemia = tested on: HL-60(TB) leukemia
HCC-2998 colon = tested on: HCC-2998 colon
HCT-116 colon = tested on: HCT-116 colon
786-0 renal = tested on: 786-0 renal
U251 CNS = tested on: U251 CNS
OVCAR-3 ovarian = tested on: OVCAR-3 ovarian
SF-295 CNS = tested on: SF-295 CNS
MCF7 breast = tested on: MCF7 breast
MDA-MB-231 breast = tested on: MDA-MB-231 breast
T-47D breast = tested on: T-47D breast
CCRF-CEM leukemia = tested on: CCRF-CEM leukemia
SN12C renal = tested on: SN12C renal
M14 melanoma = tested on: M14 melanoma
SK-MEL-28 melanoma = tested on: SK-MEL-28 melanoma
SR leukemia = tested on: SR leukemia
SF-268 CNS = tested on: SF-268 CNS
K-562 leukemia = tested on: K-562 leukemia
MDA-N = tested on: MDA-N

Row | SMILES | TGI (BT-549 breast) [µM] | TGI (SK-MEL-5 melanoma) [µM] | TGI (HL-60(TB) leukemia) [µM] | TGI (HCC-2998 colon) [µM] | TGI (HCT-116 colon) [µM] | TGI (786-0 renal) [µM] | TGI (U251 CNS) [µM] | TGI (OVCAR-3 ovarian) [µM] | TGI (SF-295 CNS) [µM] | TGI (MCF7 breast) [µM] | TGI (MDA-MB-231 breast) [µM] | TGI (T-47D breast) [µM] | TGI (CCRF-CEM leukemia) [µM] | TGI (SN12C renal) [µM] | TGI (M14 melanoma) [µM] | TGI (SK-MEL-28 melanoma) [µM] | TGI (SR leukemia) [µM] | TGI (SF-268 CNS) [µM] | TGI (K-562 leukemia) [µM] | TGI (MDA-N) [µM]
1 | CC(=O)NC1C(OC2C(CO)OC(OCC3OC(n4ccc(N)nc4=O)C(O)C3O)C(NC(C)=O)C2O)OC(CO)C(O)C1O (configuration not stated) | > 100 | > 100 | > 100 | > 100 | > 100 | > 100 | > 100 | > 100 | > 100 | > 100 | > 100 | > 100 | > 100 | > 100 | > 100 | > 100 | > 100 | > 100 | > 100 | –
2 | COC(=O)CCc1ccc2c(c1)CC1(Cc3ccccc3C1)C2 | – | > 100 | > 100 | > 100 | > 100 | > 100 | > 100 | > 100 | > 100 | > 100 | > 100 | > 100 | > 100 | > 100 | > 100 | – | – | – | > 100 | > 100
3 | CCOC(=O)c1c(-c2ccccc2)nc2c(OC)nccn12 | > 100 | > 100 | > 100 | > 100 | > 100 | > 100 | > 100 | > 100 | > 100 | > 100 | > 100 | > 100 | > 100 | > 100 | > 100 | > 100 | > 100 | > 100 | > 100 | –
4 | C/C=C1\CNC1C(=O)O (configuration not stated) | > 100 | > 100 | > 100 | > 100 | > 100 | > 100 | – | > 100 | > 100 | > 100 | – | – | > 100 | > 100 | – | > 100 | – | > 100 | > 100 | > 100
5 | CC(C)[Si](OC1=C(c2ccccc2)C(NC(=O)/C=C/c2ccc([N+](=O)[O-])cc2)CCC1)(C(C)C)C(C)C (configuration not stated) | > 100 | > 100 | > 100 | > 100 | > 100 | > 100 | > 100 | > 100 | > 100 | > 100 | > 100 | > 100 | > 100 | – | > 100 | – | > 100 | > 100 | > 100 | –
6 | C[C@@H](CO)C1=CC(C#C[Si](C)(C)C)N(C(=O)Oc2ccccc2)c2ccccc21 (some centres not stated) | – | 30.5 | 57.2 | 29.9 | 29 | 31.8 | 35.8 | 26.9 | 28.1 | – | 37.8 | 51.1 | 72.6 | 30.9 | 35.6 | 36.3 | > 100 | 39 | 95.5 | 23.7
7 | NC(=O)NC1=NC(Cc2ccccc2)C(=O)N1Cc1ccccc1 (configuration not stated) | – | > 100 | > 100 | > 100 | > 100 | > 100 | > 100 | > 100 | > 100 | – | – | – | > 100 | > 100 | > 100 | > 100 | > 100 | > 100 | > 100 | –
8 | NC(=NCCN1CCCCCCC1)NO | – | > 100 | > 100 | > 100 | 26.7 | > 100 | – | > 100 | > 100 | > 100 | > 100 | > 100 | > 100 | > 100 | > 100 | > 100 | > 100 | > 100 | > 100 | > 100
9 | COC(=O)c1cc(C)ccc1C1CN=NC12Cc1cccc(C)c1C2=O (configuration not stated) | – | 31.9 | 32.8 | > 100 | 70.5 | > 100 | > 100 | > 100 | > 100 | > 100 | 75.5 | 35.6 | 99 | > 100 | 38.9 | > 100 | > 100 | > 100 | > 100 | > 100
10 | CCOC1(OCC)N=C(N)C2(C#N)C3(C(=O)N(C(C)C)N=C3C)C12C#N (configuration not stated) | > 100 | – | > 100 | > 100 | > 100 | > 100 | > 100 | > 100 | > 100 | > 100 | > 100 | > 100 | > 100 | > 100 | > 100 | > 100 | > 100 | > 100 | > 100 | –
11 | O=Nc1sc(=N\O)/c(=N/O)sc1NO | > 100 | > 100 | > 100 | > 100 | > 100 | > 100 | > 100 | > 100 | > 100 | > 100 | > 100 | – | > 100 | > 100 | > 100 | > 100 | > 100 | – | > 100 | > 100
12 | COCCN(CCOC)C(=O)COc1c2cc(C(C)(C)C)cc1Cc1cc(C(C)(C)C)cc(c1OCC(=O)N(CCOC)CCOC)Cc1cc(C(C)(C)C)cc(c1OCC(=O)N(CCOC)CCOC)Cc1cc(C(C)(C)C)cc(c1OCC(=O)N(CCOC)CCOC)Cc1cc(C(C)(C)C)cc(c1OCC(=O)N(CCOC)CCOC)C2 | – | 2.78 | – | 18.3 | 3.78 | 12.2 | 2.05 | 10.2 | 6.43 | 6.42 | 5.06 | 19.5 | – | 11.4 | 13 | 18.6 | 3.63 | 19.1 | – | 12.1
13 | COc1cc2c(cc1OC)-c1c(oc3cc(OC4OC(CO)C(O)C(O)C4O)c(OC)cc3c1=O)C(O)O2 (configuration not stated) | > 100 | > 100 | > 100 | > 100 | > 100 | > 100 | > 100 | > 100 | > 100 | – | > 100 | – | > 100 | > 100 | > 100 | > 100 | – | > 100 | > 100 | –
14 | CN(C)C1(N(C)C)Oc2c(c(=O)n(C)c(=O)n2C)C(c2ccccc2Br)C1(F)F (configuration not stated) | > 100 | > 100 | – | > 100 | > 100 | > 100 | > 100 | > 100 | > 100 | > 100 | > 100 | > 100 | > 100 | – | > 100 | > 100 | – | > 100 | > 100 | –
15 | N#C/C(C(=S)Nc1ccccc1)=C(/N)N1CCCC1 | – | > 100 | > 100 | > 100 | > 100 | > 100 | > 100 | > 100 | > 100 | > 100 | > 100 | – | > 100 | > 100 | > 100 | > 100 | > 100 | > 100 | > 100 | > 100
16 | Cc1c(NC(=O)c2cc([N+](=O)[O-])cc([N+](=O)[O-])c2)c(=O)n(-c2ccccc2)n1C | > 100 | > 100 | > 100 | – | > 100 | > 100 | > 100 | > 100 | – | > 100 | > 100 | – | > 100 | > 100 | > 100 | > 100 | > 100 | > 100 | > 100 | > 100
17 | O=C1C(=c2cc3c(c4ccccc24)=NC24CCCCC2C(c2ccccc2)C=C(c2ccccc2)N34)C(=O)c2ccccc21 (configuration not stated) | – | > 100 | > 100 | – | > 100 | > 100 | > 100 | > 100 | > 100 | > 100 | > 100 | > 100 | > 100 | > 100 | > 100 | > 100 | 79.7 | > 100 | > 100 | > 100
18 | c1ccc2sc(C3(N4CCC5(CC4)OCCO5)CCCCC3)cc2c1 | > 100 | > 100 | 54.9 | 90.9 | > 100 | > 100 | – | > 100 | > 100 | > 100 | – | > 100 | > 100 | > 100 | > 100 | > 100 | > 100 | > 100 | > 100 | > 100
19 | Cn1c(=O)n2c(-c3ccccc3)c(-c3ccccc3)n2c1=O | > 100 | > 100 | > 100 | > 100 | > 100 | > 100 | > 100 | > 100 | > 100 | > 100 | > 100 | – | > 100 | > 100 | > 100 | > 100 | > 100 | – | > 100 | > 100
20 | CS/C(=N\S(=O)(=O)c1cc(C)c(Cl)cc1Cl)NNc1cnc2ccccc2n1 | > 100 | > 100 | > 100 | > 100 | > 100 | > 100 | > 100 | > 100 | > 100 | > 100 | > 100 | > 100 | > 100 | > 100 | > 100 | > 100 | – | > 100 | > 100 | –
21 | CC(C)n1c(=O)[nH]n(-c2ccccc2)c1=O | – | > 100 | > 100 | – | > 100 | > 100 | > 100 | > 100 | > 100 | > 100 | > 100 | – | > 100 | > 100 | > 100 | > 100 | > 100 | > 100 | > 100 | > 100
22 | CCOC(=O)N/N=C(\Cc1ccc([N+](=O)[O-])cc1)OCC | > 100 | > 100 | – | > 100 | > 100 | > 100 | > 100 | > 100 | > 100 | > 100 | > 100 | – | > 100 | > 100 | > 100 | – | > 100 | > 100 | > 100 | > 100
23 | COC(=O)c1ccc(COC(=O)N2C=CCC2C(=O)O)cc1 (configuration not stated) | > 100 | > 100 | – | > 100 | – | > 100 | > 100 | > 100 | > 100 | > 100 | > 100 | – | – | > 100 | > 100 | > 100 | > 100 | > 100 | > 100 | > 100
24 | CN(C)CCNC1=CC(=O)c2nc3ccccc3c3ccnc1c23 | 21.4 | – | 16.8 | 16.8 | 14.8 | 15.6 | 25.5 | 16.4 | 19.8 | 16.3 | 16 | – | 21.3 | 20.3 | 21.6 | 23.5 | 9.05 | 21.5 | 17.7 | 20.7
25 | C=C1CC2CC(=O)C(O)C(C1)C2 (configuration not stated) | – | > 100 | > 100 | > 100 | > 100 | > 100 | – | > 100 | > 100 | > 100 | – | > 100 | > 100 | > 100 | > 100 | – | > 100 | > 100 | > 100 | > 100
26 | CC(=O)O[C@H]1CC[C@@]2(C)C(=C[C@H](c3ccc(O)cc3)[C@H]3[C@@H]4CC[C@H](OC(C)=O)[C@@]4(C)CC[C@@H]32)C1 | 29.4 | 23.8 | 58 | 36.2 | 29.7 | 38.3 | 48 | 38.8 | 77.9 | 57.4 | 35.8 | – | 56.1 | 69 | 41.3 | – | – | 39.3 | 59.4 | –
